In patent US9884063B2, “Amido-substituted azole compounds” (Bayer Pharma Aktiengesellschaft, priority 2014, dated 2018):

Columns and labels:
TNKS1 = molecular target: T1, TNKS1 (Homo sapiens, UniProt O95271); assay: Modified TNKS1 Assay 2 (auto-parsylation, [3H]-NAD+ SPA); assay type: biochemical; conditions: 6 nM TNKS1, 96 well
T1 sequence (O95271 1-1327): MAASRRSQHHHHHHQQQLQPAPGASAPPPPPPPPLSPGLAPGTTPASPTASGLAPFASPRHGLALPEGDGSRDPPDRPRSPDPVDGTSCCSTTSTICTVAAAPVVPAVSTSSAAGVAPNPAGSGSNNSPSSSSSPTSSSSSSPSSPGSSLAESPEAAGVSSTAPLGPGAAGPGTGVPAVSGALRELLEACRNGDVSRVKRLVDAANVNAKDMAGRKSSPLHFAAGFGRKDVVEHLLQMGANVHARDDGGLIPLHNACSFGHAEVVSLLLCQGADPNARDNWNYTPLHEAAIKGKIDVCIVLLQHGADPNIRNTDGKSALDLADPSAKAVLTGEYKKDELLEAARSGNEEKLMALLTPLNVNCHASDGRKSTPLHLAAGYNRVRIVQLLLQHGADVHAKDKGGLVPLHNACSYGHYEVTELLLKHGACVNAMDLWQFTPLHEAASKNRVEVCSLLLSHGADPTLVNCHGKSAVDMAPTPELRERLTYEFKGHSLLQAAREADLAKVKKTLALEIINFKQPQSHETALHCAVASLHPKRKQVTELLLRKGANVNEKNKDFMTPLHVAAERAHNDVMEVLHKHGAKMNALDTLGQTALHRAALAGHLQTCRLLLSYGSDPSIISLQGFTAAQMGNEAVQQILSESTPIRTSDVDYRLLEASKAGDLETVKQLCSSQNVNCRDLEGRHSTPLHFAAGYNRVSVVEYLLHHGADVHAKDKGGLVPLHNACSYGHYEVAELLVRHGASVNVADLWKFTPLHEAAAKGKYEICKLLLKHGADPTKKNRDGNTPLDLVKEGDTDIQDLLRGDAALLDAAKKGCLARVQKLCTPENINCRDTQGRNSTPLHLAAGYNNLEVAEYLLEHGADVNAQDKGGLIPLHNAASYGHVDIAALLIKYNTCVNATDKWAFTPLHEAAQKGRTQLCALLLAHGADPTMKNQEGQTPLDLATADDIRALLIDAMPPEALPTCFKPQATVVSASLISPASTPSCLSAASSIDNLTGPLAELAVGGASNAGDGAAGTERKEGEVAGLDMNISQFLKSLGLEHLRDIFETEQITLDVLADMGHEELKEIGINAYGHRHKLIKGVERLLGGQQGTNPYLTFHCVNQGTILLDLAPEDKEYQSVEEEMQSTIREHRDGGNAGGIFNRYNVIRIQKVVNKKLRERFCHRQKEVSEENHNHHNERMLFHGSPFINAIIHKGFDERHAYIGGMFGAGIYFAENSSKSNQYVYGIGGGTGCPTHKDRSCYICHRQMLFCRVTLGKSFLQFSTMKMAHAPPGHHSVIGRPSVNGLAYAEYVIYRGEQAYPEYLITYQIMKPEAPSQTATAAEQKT

[1] = test system: wildtype Wnt signaling cascade; assay: HEK293 TOP Assay (Super TopFlash luciferase reporter, Wnt-3a stimulated); assay type: cell-based
How it was run: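 Compounds (50 μM down to 15 nM, 3.16-fold steps, in CAFTY buffer pH 7.4, 2 mM Ca2+, 0.01% BSA) tested in parallel on TOP and FOP HEK293 reporter lines to define selective wildtype Wnt inhibition. Pathway driven by recombinant human Wnt-3a applied at 2500–5 ng/ml in two-fold dilutions.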

[2] = Homo sapiens, HEK293, 16 h, HEK293 TOP reporter cell line, Wnt-3a at EC50, 16 hours incubation, compound dilution series 50 μM to 15 nM
[3] = Homo sapiens, HEK293, 16 h, HEK293 TOP reporter cells, Wnt3a at EC50, 16 hours, luciferase

Compound	IC50 (TNKS1)	IC50 ([1]; HEK293 TOP reporter cell line, Wnt-3a at EC50, 16 hours incubation, compound dilution series 50 μM to 15 nM)	IC50 [1, 2]	IC50 [1, 3]
CC(CN1CCOCC1)NC(=O)c1[nH]cnc1C(=O)Nc1ccc(NC(=O)c2ccc(F)cc2Cl)cc1 (single isomer, unassigned; enantiomer 2) [Example 270, N^4-{4-[(2-chloro-4-fluorobenzoyl)amino]phenyl}-N^5-[1-(morpholin-4-yl)propan-2-yl]-1H-imidazole-4,5-dicarboxamide (enantiomer 2)]	4 nM	40 nM		
CNC(=O)c1nc[nH]c1C(=O)Nc1ccc(NC(=O)c2ccccc2)cc1 [Example 21, N^5-[4-(benzoylamino)phenyl]-N^4-methyl-1H-imidazole-4,5-dicarboxamide]	> 10000 nM		12000 nM	12000 nM
CN(C)CCNC(=O)c1nc[nH]c1C(=O)Nc1ccc(NC(=O)c2ccc(F)cc2Cl)cc1 [Example 22, N^4-{4-[(2-chloro-4-fluorobenzoyl)amino]phenyl}-N^5-[2-(dimethylamino)ethyl]-1H-imidazole-4,5-dicarboxamide]	10 nM		140 nM	130 nM
O=C(Nc1ccc(NC(=O)c2[nH]cnc2C(=O)N2CCOCC2)cc1)c1ccc(F)cc1Cl [Example 29, N-{4-[(2-chloro-4-fluorobenzoyl)amino]phenyl}-5-(morpholin-4-ylcarbonyl)-1H-imidazole-4-carboxamide]	2100 nM		3930 nM	3920 nM
O=C(Nc1ccc(NC(=O)c2[nH]cnc2C(=O)NCCN2CCCCC2)cc1)c1ccc(F)cc1Cl [Example 32, N^4-{4-[(2-chloro-4-fluorobenzoyl)amino]phenyl}-N^5-[2-(piperidin-1-yl)ethyl]-1H-imidazole-4,5-dicarboxamide]	9 nM		20 nM	20 nM
CNC(=O)c1nc[nH]c1C(=O)Nc1ccc(NC(=O)c2c(Cl)cccc2C(F)(F)F)cc1 [Example 36, N^5-(4-{[2-chloro-6-(trifluoromethyl)benzoyl]amino}phenyl)-N^4-methyl-1H-imidazole-4,5-dicarboxamide]	> 10000 nM		6150 nM	6150 nM
CCc1ccccc1C(=O)Nc1ccc(NC(=O)c2[nH]cnc2C(=O)NC)cc1 [Example 39, N^5-{4-[(2-ethylbenzoyl)amino]phenyl}-N^4-methyl-1H-imidazole-4,5-dicarboxamide]	2700 nM		1700 nM	1700 nM
O=C(Nc1ccc(NC(=O)c2[nH]cnc2C(=O)NCCC2CCCC2)cc1)c1ccc(F)cc1Cl [Example 42, N^5-{4-[(2-chloro-4-fluorobenzoyl)amino]phenyl}-N^4-(2-cyclopentylethyl)-1H-imidazole-4,5-dicarboxamide]	> 10000 nM		2300 nM	
O=C(Nc1ccc(NC(=O)c2[nH]cnc2C(=O)NCCC2CC2)cc1)c1ccc(F)cc1Cl [Example 43, N^5-{4-[(2-chloro-4-fluorobenzoyl)amino]phenyl}-N^4-(2-cyclopropylethyl)-1H-imidazole-4,5-dicarboxamide]	9200 nM		530 nM	
CN1CC2(C1)CN(C(=O)c1nc[nH]c1C(=O)Nc1ccc(NC(=O)c3ccc(F)cc3Cl)cc1)C2 [Example 46, N-{4-[(2-chloro-4-fluorobenzoyl)amino]phenyl}-4-[(6-methyl-2,6-diazaspiro[3.3]hept-2-yl)carbonyl]-1H-imidazole-5-carboxamide]	680 nM		290 nM	
O=C(Nc1ccc(NC(=O)c2[nH]cnc2C(=O)NCCC2CCCC2)cc1)c1cc(F)c(F)cc1Cl [Example 48, N^5-{4-[(2-chloro-4,5-difluorobenzoyl)amino]phenyl}-N^4-(2-cyclopentylethyl)-1H-imidazole-4,5-dicarboxamide]	> 10000 nM		2650 nM	
O=C(Nc1ccc(NC(=O)c2[nH]cnc2C(=O)NC2CC2)cc1)c1cc(F)c(F)cc1Cl [Example 51, N^5-{4-[(2-chloro-4,5-difluorobenzoyl)amino]phenyl}-N^4-cyclopropyl-1H-imidazole-4,5-dicarboxamide]	20 nM		140 nM	
O=C(Nc1ccc(NC(=O)c2[nH]cnc2C(=O)N2CC3(COC3)C2)cc1)c1cc(F)c(F)cc1Cl [Example 52, N-{4-[(2-chloro-4,5-difluorobenzoyl)amino]phenyl}-4-(2-oxa-6-azaspiro[3.3]hept-6-ylcarbonyl)-1H-imidazole-5-carboxamide]	30 nM		610 nM	
CS(=O)(=O)c1ccc(C(=O)Nc2ccc(NC(=O)c3[nH]cnc3C(=O)NCCN3CCCCC3)cc2)c(Cl)c1 [Example 53, N^5-(4-{[2-chloro-4-(methylsulfonyl)benzoyl]amino}phenyl)-N^4-[2-(piperidin-1-yl)ethyl]-1H-imidazole-4,5-dicarboxamide]	20 nM		40 nM	
CNC(=O)c1nc[nH]c1C(=O)Nc1ccc(NC(=O)c2ccc(S(C)(=O)=O)cc2Cl)cc1 [Example 55, N^5-(4-{[2-chloro-4-(methylsulfonyl)benzoyl]amino}phenyl)-N^4-methyl-1H-imidazole-4,5-dicarboxamide]	120 nM		270 nM	
CNC(=O)c1nc[nH]c1C(=O)Nc1ccc(NC(=O)c2ccc(F)cc2Br)cc1 [Example 56, N^5-{4-[(2-bromo-4-fluorobenzoyl)amino]phenyl}-N^4-methyl-1H-imidazole-4,5-dicarboxamide]	530 nM		120 nM	
CNC(=O)c1nc[nH]c1C(=O)Nc1ccc(NC(=O)c2ccccc2OC)cc1 [Example 60, N^5-{4-[(2-methoxybenzoyl)amino]phenyl}-N^4-methyl-1H-imidazole-4,5-dicarboxamide]	> 10000 nM		15500 nM	
CNC(=O)c1nc[nH]c1C(=O)Nc1ccc(NC(=O)c2ccc(F)cc2I)cc1 [Example 61, N^5-{4-[(4-fluoro-2-iodobenzoyl)amino]phenyl}-N^4-methyl-1H-imidazole-4,5-dicarboxamide]	30 nM		100 nM	
O=C(Nc1ccc(NC(=O)c2[nH]cnc2C(=O)NCCN2CCCCC2)cc1)c1ccc(F)cc1I [Example 62, N^5-{4-[(4-fluoro-2-iodobenzoyl)amino]phenyl}-N^4-[2-(piperidin-1-yl)ethyl]-1H-imidazole-4,5-dicarboxamide]	840 nM		10 nM	
CNC(=O)c1nc[nH]c1C(=O)Nc1ccc(NC(=O)c2cc(OC(F)(F)F)ccc2Br)cc1 [Example 64, N^5-(4-{[2-bromo-5-(trifluoromethoxy)benzoyl]amino}phenyl)-N^4-methyl-1H-imidazole-4,5-dicarboxamide]	> 10000 nM		1450 nM	
Cc1nc(C(=O)Nc2ccc(NC(=O)c3ccc(F)cc3Cl)cc2)c(C(=O)NCCN(C)C)[nH]1 [Example 66, N^4-{4-[(2-chloro-4-fluorobenzoyl)amino]phenyl}-N^5-[2-(dimethylamino)ethyl]-2-methyl-1H-imidazole-4,5-dicarboxamide]	20 nM		310 nM	
Cc1nc(C(=O)Nc2ccc(NC(=O)c3ccc(F)cc3Cl)cc2)c(C(=O)NCCN2CCCCC2)[nH]1 [Example 67, N^4-{4-[(2-chloro-4-fluorobenzoyl)amino]phenyl}-2-methyl-N^5-[2-(piperidin-1-yl)ethyl]-1H-imidazole-4,5-dicarboxamide]	4 nM		70 nM	
